Where a name gives a salt, the structure may show the parent alone. Read-outs that look alike come from different tables or passages of the source.
What was measured:
[1] = biological target: EGFR T790M/L858R (Homo sapiens, UniProt P00533, L858R/T790M); assay: Kinase assay (mobility shift) for EGFR T790M/L858R; type: biochemical
Description: (§1) Enzyme reaction protocol are as followed:
(§2) 1. Preparing 1* Kinase buffer as followed.
(§3) 2. Preparing Compound Concentration Gradient: Compounds were tested at a concentration of 300 nM, diluted to 100-fold final concentration in 100% DMSO solution in 96-well plates, and compounds were diluted 3 times with Precision, 10 concentrations. Each concentration of the compound was then further diluted to a 5-fold final concentration of the intermediate dilution solution using 1* Kinase buffer.
(§4) 3. 5 μL of each of the prepared intermediate dilution compounds was separately added to the compound wells of the 384-well plate, and each concentration was tested for duplicate wells; 5 μL of 5% DMSO was added to the negative control wells and the positive control wells, respectively.
(§5) 4. 2.5-fold final concentration of the kinase solution was prepared using 1*Kinase buffer.
(§6) 6. Centrifuge at 1000 rpm for 30 seconds, shake the reaction plate and incubate for 10 minutes at room temperature.
(§7) 8. 10 μL of a 2.5-fold final concentration of a mixed solution of ATP and a substrate was added to initiate the reaction.
(§8) 9. Centrifuge the 384-well plate at 1000 rpm for 30 seconds, mix by shaking, and incubate at room temperature for the corresponding time.
(§9) 10. Add 30 μL of the stop solution to stop the kinase reaction, centrifuge at 1000 rpm for 30 seconds, and mix by shaking.
(§10) 11. Read the conversion rate with Caliper EZ Reader.
(§11) Convert conversion values to inhibition values:
(§12) Percent inhibition=(max−conversion % sample)/(max−min)*100.
(§13) “max” stands for the mean value of the positive control well ratio; “min” stands for the mean value of the negative control well; conversion % sample: sample conversion reading.
(§14) Fit the data in log(inhibitor) vs. response Variable slope of GraphPad Prism 5 to obtain IC50 values.
(§15) Equation used is: Y=Bottom+(Top−Bottom)/(1+(IC50/X)*HillSlope)

[2] = biological target: EGFR Δ19del/T790M/C797S (Homo sapiens, UniProt P00533, T790M/C797S, form not given); assay: Kinase assay (mobility shift) for EGFR Δ19del/T790M/C797S; type: biochemical; conditions: read-out: EGFR Δ 19del/T790M/C797S IC50
Description: as §1, §2, §3, §4, §5, §6, §7, §8, §9, §10, §11, §12, §13, §14, §15

[3] = biological target: EGFR L858R (Homo sapiens, UniProt P00533, L858R); assay: Kinase assay (mobility shift) for EGFR L858R; type: biochemical
Description: as §1, §2, §3, §4, §5, §6, §7, §8, §9, §10, §11, §12, §13, §14, §15

[4] = tested on: H1975(L858R/T790M); assay: H1975 cells proliferation assay; type: cell-based; conditions: for IC50: Homo sapiens, read-out: H1975 IC50
Description: (§16) Test 3 H1975 and HCC827 Cells Proliferation Assay
(§17) a) The medium was preheated in a 37° C. water bath in advance.
(§18) b) Remove the cryogenic vials from the liquid nitrogen tank, quickly put it into a 37° C. water bath, and completely melt it in 1 min.
(§19) c) Transfer the cell suspension to a 15 mL centrifuge tube containing 8 mL medium, centrifuge 1000 rpm, 5 min.
(§20) d) Discard the supernatant, resuspend the cells in 1 mL medium, and transfer to a 75 cm^2 flask containing 15 mL medium, culture the cells in an incubator at 37° C., 5% CO2.
(§21) b) Collect cell to a 15 mL centrifuged tube, centrifuge at 1000 rpm for 5 min. Discard the supernatant, count, and make the cell density at 1×10^4 cells/mL, then place it in a 37° C., 5% CO2 incubator.
(§22) b) The above compound solution was diluted 1:20 times with culture medium to prepare a 10 fold working solution;
(§23) a) Take cells in log phase growth, centrifuge at 1000 rpm for 5 min, then resuspend the cells with culture medium, then count cells;
(§24) b) Cells were seeded to 96-well cell culture plate with density at 2000 cells/well (suitable for H1975 cell) and at 2500 cells/well (suitable for HCC827 cell);
(§25) The blank control well was a culture medium (0.5% DMSO);
(§26) b) The cells were incubated for an additional 72 h in the incubator.
(§27) a) Remove the 96-well cell culture plate and add 50 μl of CTG reagent (CellTiter Glo kit, promega, Cat #G7573).
(§28) b) Plate was shaked for 2 min and then let it cool for 10 min at room temperature.
(§29) c) The Luminescence signal value was read using a PerkinElmer reader.
(§30) Experimental Data Analysis
(§31) Data were analyzed using GraphPad Prism 6.0 software to obtain a fitted curve of compound activity.
(§32) Y=Bottom+(Top−Bottom)/(1+10^((Log IC50−X)*HillSlope));
(§33) The cells proliferation assay results are expressed with IC50, shown as Table 2.

[5] = tested on: HCC827(Δ19del); assay: HCC827 cells proliferation assay; type: cell-based; conditions: Homo sapiens, read-out: HCC827 IC50
Description: as §16, §17, §18, §19, §20, §21, §22, §23, §24, §25, §26, §27, §28, §29, §30, §31, §32, §33

[6] = NCI-H1975, cell proliferation, 72 h, CellTiter Glo, class symbols
[7] = HCC827, cell proliferation, 72 h, CellTiter Glo, class symbols

Sequence of EGFR Δ19del/T790M/C797S (P00533 with tags, fused parts or gaps DEL746-750/T790M/C797S, form open): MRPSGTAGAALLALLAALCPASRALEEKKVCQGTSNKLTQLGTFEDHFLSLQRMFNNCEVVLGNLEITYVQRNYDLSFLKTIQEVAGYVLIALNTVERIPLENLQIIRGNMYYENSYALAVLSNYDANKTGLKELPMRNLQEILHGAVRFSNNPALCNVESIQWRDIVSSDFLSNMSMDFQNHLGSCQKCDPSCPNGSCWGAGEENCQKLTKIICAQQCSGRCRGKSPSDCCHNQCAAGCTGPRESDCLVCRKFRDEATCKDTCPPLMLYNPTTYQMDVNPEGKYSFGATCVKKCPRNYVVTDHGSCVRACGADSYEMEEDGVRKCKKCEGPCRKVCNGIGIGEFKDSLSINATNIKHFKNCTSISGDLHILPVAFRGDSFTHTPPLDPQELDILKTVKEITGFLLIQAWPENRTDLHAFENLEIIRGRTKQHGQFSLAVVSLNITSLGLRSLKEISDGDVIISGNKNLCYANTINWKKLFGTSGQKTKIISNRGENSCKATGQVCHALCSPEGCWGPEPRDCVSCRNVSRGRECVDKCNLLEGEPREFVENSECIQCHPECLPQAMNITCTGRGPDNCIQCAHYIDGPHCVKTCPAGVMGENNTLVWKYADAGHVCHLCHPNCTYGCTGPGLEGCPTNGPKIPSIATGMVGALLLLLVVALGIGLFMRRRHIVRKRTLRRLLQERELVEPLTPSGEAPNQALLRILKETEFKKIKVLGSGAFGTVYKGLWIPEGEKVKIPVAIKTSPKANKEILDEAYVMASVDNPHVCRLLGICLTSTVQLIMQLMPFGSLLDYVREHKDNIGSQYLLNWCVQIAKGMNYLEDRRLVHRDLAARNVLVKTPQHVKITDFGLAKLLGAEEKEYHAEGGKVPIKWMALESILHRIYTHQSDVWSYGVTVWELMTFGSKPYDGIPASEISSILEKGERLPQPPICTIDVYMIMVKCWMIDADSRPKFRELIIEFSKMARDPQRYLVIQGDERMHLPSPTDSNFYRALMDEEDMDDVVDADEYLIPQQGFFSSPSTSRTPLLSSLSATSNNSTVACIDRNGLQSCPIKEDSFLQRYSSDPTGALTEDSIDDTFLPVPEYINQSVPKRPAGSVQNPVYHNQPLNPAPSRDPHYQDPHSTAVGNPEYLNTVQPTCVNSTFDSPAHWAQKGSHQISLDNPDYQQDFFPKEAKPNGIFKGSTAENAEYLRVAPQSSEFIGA
Sequence of EGFR T790M/L858R (P00533 25-1210 T790M/L858R): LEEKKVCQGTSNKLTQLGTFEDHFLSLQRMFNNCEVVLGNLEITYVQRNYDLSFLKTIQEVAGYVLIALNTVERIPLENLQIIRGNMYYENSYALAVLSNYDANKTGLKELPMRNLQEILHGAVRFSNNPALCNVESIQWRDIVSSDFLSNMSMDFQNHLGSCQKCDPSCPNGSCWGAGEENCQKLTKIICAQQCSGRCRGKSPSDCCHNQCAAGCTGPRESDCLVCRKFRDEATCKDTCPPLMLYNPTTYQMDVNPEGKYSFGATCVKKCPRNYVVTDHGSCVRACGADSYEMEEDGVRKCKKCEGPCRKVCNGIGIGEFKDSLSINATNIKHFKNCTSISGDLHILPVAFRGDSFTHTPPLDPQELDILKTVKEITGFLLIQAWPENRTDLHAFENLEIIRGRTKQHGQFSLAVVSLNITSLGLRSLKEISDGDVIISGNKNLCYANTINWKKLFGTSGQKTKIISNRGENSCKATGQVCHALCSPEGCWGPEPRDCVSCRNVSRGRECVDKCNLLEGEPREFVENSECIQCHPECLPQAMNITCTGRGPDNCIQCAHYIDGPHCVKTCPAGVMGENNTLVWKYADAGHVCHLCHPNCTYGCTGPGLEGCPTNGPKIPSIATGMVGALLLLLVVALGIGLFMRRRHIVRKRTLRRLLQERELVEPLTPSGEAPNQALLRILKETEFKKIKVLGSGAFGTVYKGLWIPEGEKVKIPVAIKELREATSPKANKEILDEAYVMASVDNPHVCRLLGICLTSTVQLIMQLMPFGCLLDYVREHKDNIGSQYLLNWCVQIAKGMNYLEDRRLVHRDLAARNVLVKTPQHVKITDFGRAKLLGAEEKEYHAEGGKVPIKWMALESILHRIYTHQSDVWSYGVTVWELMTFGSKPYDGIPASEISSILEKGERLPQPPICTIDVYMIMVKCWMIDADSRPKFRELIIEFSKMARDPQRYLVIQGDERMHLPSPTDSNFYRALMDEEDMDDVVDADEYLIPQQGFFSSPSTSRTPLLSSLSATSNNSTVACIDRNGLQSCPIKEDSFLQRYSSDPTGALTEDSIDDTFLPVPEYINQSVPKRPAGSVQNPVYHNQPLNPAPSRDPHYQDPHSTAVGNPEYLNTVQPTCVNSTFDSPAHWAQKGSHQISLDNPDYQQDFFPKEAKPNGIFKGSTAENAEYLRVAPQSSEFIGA
Sequence of EGFR L858R (P00533 25-1210 L858R): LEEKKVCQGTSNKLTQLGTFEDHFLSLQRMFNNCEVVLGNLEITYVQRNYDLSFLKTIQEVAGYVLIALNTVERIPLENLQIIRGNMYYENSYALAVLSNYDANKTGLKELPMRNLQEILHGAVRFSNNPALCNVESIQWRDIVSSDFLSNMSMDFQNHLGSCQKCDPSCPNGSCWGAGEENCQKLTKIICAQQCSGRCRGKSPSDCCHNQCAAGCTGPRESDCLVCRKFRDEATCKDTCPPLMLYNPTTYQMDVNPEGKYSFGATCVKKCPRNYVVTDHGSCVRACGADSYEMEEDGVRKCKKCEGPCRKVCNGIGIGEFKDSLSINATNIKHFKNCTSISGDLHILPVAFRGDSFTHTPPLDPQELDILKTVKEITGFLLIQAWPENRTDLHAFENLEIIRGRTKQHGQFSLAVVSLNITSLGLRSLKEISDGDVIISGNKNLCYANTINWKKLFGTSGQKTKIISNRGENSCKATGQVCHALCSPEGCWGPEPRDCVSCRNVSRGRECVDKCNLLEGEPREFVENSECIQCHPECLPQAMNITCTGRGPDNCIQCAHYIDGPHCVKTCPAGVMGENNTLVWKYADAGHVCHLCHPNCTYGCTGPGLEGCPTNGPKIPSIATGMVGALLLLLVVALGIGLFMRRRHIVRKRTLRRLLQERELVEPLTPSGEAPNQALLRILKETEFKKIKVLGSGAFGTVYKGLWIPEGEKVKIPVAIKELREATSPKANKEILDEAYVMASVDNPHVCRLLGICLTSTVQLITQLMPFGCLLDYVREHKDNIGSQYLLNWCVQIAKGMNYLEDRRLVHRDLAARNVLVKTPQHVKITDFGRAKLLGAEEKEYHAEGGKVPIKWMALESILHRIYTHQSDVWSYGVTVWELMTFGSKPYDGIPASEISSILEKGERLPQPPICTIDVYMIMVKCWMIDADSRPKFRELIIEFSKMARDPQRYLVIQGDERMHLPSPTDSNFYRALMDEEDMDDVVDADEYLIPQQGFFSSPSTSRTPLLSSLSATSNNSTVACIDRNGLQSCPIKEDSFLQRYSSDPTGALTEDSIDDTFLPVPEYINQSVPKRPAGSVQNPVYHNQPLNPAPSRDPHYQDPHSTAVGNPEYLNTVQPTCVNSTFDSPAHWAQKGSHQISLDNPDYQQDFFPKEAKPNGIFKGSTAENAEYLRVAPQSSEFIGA

IC50 [1] [nM] | IC50 [2] [nM] | IC50 [3] [nM] | IC50 [4, 6] [nM] | IC50 [5, 7] [nM] | SMILES | IC50 ([4]; NCI-H1975, 72 h) [nM] | inhibition of double mutant (L858R/T790M) ([4]; summary in words of Table 2) | IC50 ([5]; HCC827, 72 h) [nM]
< 10 | < 10 | < 10 | 10 to 50 | 10 to 50 | C=CC(=O)Nc1cc(Nc2ncc(Cl)c(Nc3ccccc3P(C)(C)=O)n2)ccc1N1CCC2(CC1)CN(C)C2 [Compound 14, N-(5-((5-chloro-4-((2-(dimethylphosphoryl)phenyl)amino)pyrimidin-2-yl)amino)-2-(2-methyl-2,7-diazaspiro[3.5]nonan-7-yl)phenyl)acrylamide hydrochloric acid salt] | – | – | –
– | – | – | 10 to 50 | < 10 | C=CC(=O)Nc1cc(Nc2nccc(Nc3ccccc3P(C)(C)=O)n2)c(OC)cc1N(C)CCN(C)C [Compound 39, N-(2-((2-(dimethylamino)ethyl)(methyl)amino)-5-((4-((2-(dimethylphosphoryl)phenyl)amino)pyrimidin-2-yl)amino)-4-methoxyphenyl)acrylamide] | – | – | –
– | – | – | 10 to 50 | 10 to 50 | C=CC(=O)Nc1cc(Nc2ncc(Cl)c(Nc3ccccc3P(C)(C)=O)n2)c(C)cc1N1CCC2(CC1)CC(N(C)C)C2 [Compound 31, N-(5-((5-chloro-4-((2-(dimethylphosphoryl)phenyl)amino)pyrimidin-2-yl)amino)-2-(2-(dimethylamino)-7-azaspiro[3.5]nonan-7-yl)-4-methylphenyl)acrylamide] | – | – | –
< 10 | < 10 | 10 to 100 | – | – | C=CC(=O)Nc1cc(Nc2nccc(Nc3ccccc3P(C)(C)=O)n2)ccc1N1CCC2(CC1)CC(N(C)C)C2 [Compound 4, N-(2-(2-(dimethylamino)-7-azaspiro[3.5]nonan-7-yl)-5-((4-((2-(dimethylphosphoryl)phenyl)amino)pyrimidin-2-yl)amino)phenyl)acrylamide] | – | – | –
< 10 | < 10 | 10 to 100 | < 10 | 10 to 50 | C=CC(=O)Nc1cc(Nc2ncc(Cl)c(Nc3ccccc3P(C)(C)=O)n2)c(OC)cc1N1CCC2(CC1)CC(N(C)C)C2 [Compound 5, N-(5-((5-chloro-4-((2-(dimethylphosphoryl)phenyl)amino)pyrimidin-2-yl)amino)-2-(2-(dimethylamino)-7-azaspiro[3.5]nonan-7-yl)-4-methoxyphenyl)acrylamide] | – | – | –
< 10 | < 10 | 10 to 100 | – | – | C=CC(=O)Nc1cc(Nc2ncc(Cl)c(Nc3ccccc3P(C)(C)=O)n2)ccc1N1CC2(CC(N(C)C)C2)C1 [Compound 3, N-(5-((5-chloro-4-((2-(dimethylphosphoryl)phenyl)amino)pyrimidin-2-yl)amino)-2-(6-(dimethylamino)-2-azaspiro[3.3]heptan-2-yl)phenyl)acrylamide] | – | – | –
– | – | – | < 10 | < 10 | C=CC(=O)Nc1cc(Nc2ncc(F)c(Nc3ccccc3P(C)(C)=O)n2)c(OC)cc1N(C)CCN(C)C [Compound 27, N-(2-((2-(dimethylamino)ethyl)(methyl)amino)-5-((4-((2-(dimethylphosphoryl)phenyl)amino)-5-fluoropyrimidin-2-yl)amino)-4-methoxyphenyl)acrylamide] | – | – | –
10 to 100 | 10 to 100 | 10 to 100 | – | 10 to 50 | C=CC(=O)Nc1cc(Nc2ncc(F)c(Nc3ccccc3P(C)(C)=O)n2)c(OC)cc1N1CCC(N2CCN(C)CC2)CC1 [Compound 28, N-(5-((4-((2-(dimethylphosphoryl)phenyl)amino)-5-fluoropyrimidin-2-yl)amino)-4-methoxy-2-(4-(4-methylpiperazin-1-yl)piperidin-1-yl)phenyl)acrylamide] | – | – | –
< 10 | < 10 | 10 to 100 | – | 10 to 50 | C=CC(=O)Nc1cc(Nc2ncc(Cl)c(Nc3ccccc3P(C)(C)=O)n2)c(OC)cc1N1CCC(N2CCN(C)CC2)CC1 [Compound 24, N-(5-((5-chloro-4-((2-(dimethylphosphoryl)phenyl)amino)pyrimidin-2-yl)amino)-4-methoxy-2-(4-(4-methylpiperazin-1-yl)piperidin-1-yl)phenyl)acrylamide] | – | – | –
10 to 100 | 10 to 100 | 10 to 100 | – | – | C=CC(=O)Nc1cc(Nc2nccc(Nc3ccccc3P(C)(C)=O)n2)c(OC)cc1N1CCC(N2CCN(C)CC2)CC1 [Compound 40, N-(5-((4-((2-(dimethylphosphoryl)phenyl)amino)pyrimidin-2-yl)amino)-4-methoxy-2-(4-(4-methylpiperazin-1-yl)piperidin-1-yl)phenyl)acrylamide] | – | – | –
< 10 | < 10 | 10 to 100 | – | – | C=CC(=O)Nc1cc(Nc2ncc(Cl)c(Nc3ccccc3P(C)(C)=O)n2)c(OC)cc1N1CC2(CCC(N(C)C)CC2)C1 [Compound 26, N-(5-((5-chloro-4-((2-(dimethylphosphoryl)phenyl)amino)pyrimidin-2-yl)amino)-2-(7-(dimethylamino)-2-azaspiro[3.5]nonan-2-yl)-4-methoxyphenyl)acrylamide] | – | – | –
< 10 | < 10 | 10 to 100 | – | < 10 | C=CC(=O)Nc1cc(Nc2ncc(C)c(Nc3ccccc3P(C)(C)=O)n2)c(OC)cc1N1CCC(N2CCN(C)CC2)CC1 [Compound 22, N-(5-((4-((2-(dimethylphosphoryl)phenyl)amino)-5-methylpyrimidin-2-yl)amino)-4-methoxy-2-(4-(4-methylpiperazin-1-yl)piperidin-1-yl)phenyl)acrylamide] | – | – | –
10 to 100 | 10 to 100 | 10 to 100 | – | – | C=CC(=O)Nc1cc(Nc2nccc(Nc3ccccc3P(C)(C)=O)n2)ccc1N1CCC(N2CCN(C)CC2)CC1 [Compound 38, N-(5-((4-((2-(dimethylphosphoryl)phenyl)amino)pyrimidin-2-yl)amino)-2-(4-(4-methylpiperazin-1-yl)piperidin-1-yl)phenyl)acrylamide] | – | – | –
– | – | – | – | – | C=CC(=O)Nc1cc(Nc2nccc(-c3cn(C)c4ccccc34)n2)c(OC)cc1N(C)CCN(C)C [Comparative compound B, reference compound] | < 10 | higher inhibition | < 10
< 10 | < 10 | 10 to 100 | – | – | C=CC(=O)Nc1cc(Nc2ncc(Cl)c(Nc3ccccc3P(C)(C)=O)n2)ccc1N1CC2(CCC(N(C)C)CC2)C1 [Compound 2, N-(5-((5-chloro-4-((2-(dimethylphosphoryl)phenyl)amino)pyrimidin-2-yl)amino)-2-(7-(dimethylamino)-2-azaspiro[3.5]nonan-2-yl)phenyl)acrylamide] | – | – | –
– | – | – | 10 to 50 | 10 to 50 | C=CC(=O)Nc1cc(Nc2ncc(Br)c(Nc3ccc4nccnc4c3P(C)(C)=O)n2)c(OC)cc1N1CCC(N2CCN(C)CC2)CC1 [Compound 13, N-(5-((5-bromo-4-((5-(dimethylphosphoryl)quinoxalin-6-yl)amino)pyrimidin-2-yl)amino)-4-methoxy-2-(4-(4-methylpiperazin-1-yl)piperidin-1-yl)phenyl)acrylamide] | – | – | –
– | – | – | – | < 10 | C=CC(=O)Nc1cc(Nc2ncc(Cl)c(Nc3ccccc3P(C)(C)=O)n2)c(OC)cc1N(C)CCN(C)C [Compound 25, N-(5-((5-chloro-4-((2-(dimethylphosphoryl)phenyl)amino)pyrimidin-2-yl)amino)-2-((2-(dimethylamino)ethyl)(methyl)amino)-4-methoxyphenyl)acrylamide] | – | – | –

From US20220227796A1, “EGFR INHIBITORS, COMPOSITIONS AND METHODS THERE OF” (Betta Pharmaceuticals Co., Ltd., priority 2019, published 2022)
